The values that follow come from US12018084B2, “Anti-CXCR2 antibodies and uses thereof” (Cephalon LLC, priority 2018, dated 2024).

The subject of one experiment is CD11b expression. To be noted: cited from earlier work.
For a further experiment, the target named is T1, CCR2b receptors (Homo sapiens, UniProt P41597).
T1 sequence (P41597 1-360 isoform P41597-2): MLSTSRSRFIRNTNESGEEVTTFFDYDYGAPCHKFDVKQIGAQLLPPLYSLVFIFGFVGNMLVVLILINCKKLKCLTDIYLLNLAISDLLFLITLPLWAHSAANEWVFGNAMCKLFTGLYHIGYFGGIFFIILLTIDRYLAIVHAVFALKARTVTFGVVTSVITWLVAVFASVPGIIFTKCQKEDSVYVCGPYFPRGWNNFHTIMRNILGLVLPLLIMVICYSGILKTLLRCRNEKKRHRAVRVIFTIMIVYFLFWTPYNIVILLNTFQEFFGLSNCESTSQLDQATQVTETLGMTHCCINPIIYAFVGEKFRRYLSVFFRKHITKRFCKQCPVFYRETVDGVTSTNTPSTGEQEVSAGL
To be noted: selectivity versus CXCR2; cited from earlier work.

The target of a further experiment is T2, CXCR1 (Homo sapiens, UniProt P25024).
T2 sequence (P25024 1-350): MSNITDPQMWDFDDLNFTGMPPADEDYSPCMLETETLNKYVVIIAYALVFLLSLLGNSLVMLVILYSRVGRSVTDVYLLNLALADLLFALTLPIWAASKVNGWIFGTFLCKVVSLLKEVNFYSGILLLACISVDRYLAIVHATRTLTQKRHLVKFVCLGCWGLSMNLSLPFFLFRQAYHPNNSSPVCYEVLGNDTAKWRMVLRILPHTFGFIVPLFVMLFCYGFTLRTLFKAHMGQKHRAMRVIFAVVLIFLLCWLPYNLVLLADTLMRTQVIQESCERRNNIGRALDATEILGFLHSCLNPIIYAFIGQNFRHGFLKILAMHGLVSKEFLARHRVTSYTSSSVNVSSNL
To be noted: selectivity versus CXCR2; cited from earlier work.

Another experiment deals with COPD. To be noted: in vivo; cited from earlier work.
Experiment [1] has as its target T3, Human CXCR2 (Homo sapiens, UniProt P25025).
T3 sequence (P25025 1-360): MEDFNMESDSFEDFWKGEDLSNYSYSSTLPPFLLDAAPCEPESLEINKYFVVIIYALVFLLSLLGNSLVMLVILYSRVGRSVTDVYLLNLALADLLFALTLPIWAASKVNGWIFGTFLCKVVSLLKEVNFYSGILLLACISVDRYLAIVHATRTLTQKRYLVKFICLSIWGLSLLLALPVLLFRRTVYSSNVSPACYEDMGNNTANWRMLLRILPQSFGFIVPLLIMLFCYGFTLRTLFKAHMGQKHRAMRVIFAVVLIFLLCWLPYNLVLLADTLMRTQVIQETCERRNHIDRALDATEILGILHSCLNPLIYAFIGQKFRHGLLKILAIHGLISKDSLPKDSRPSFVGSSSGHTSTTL
Briefly: Calcium flux assay, HTS002C-CHEMISCREEN human CXCR2 calcium-optimized cell line. The following applies: for EC50: human agonist potency. It counts as cell-based. As to the method: One of the signaling pathways downstream of CXCR2 activation that has a role in cell chemotaxis is characterized by calcium mobilization (flux). The ability of BKO-4A8-101c to inhibit human CXCR2 ligand-induced calcium flux was tested in the commercially available HTS002C-CHEMISCREEN™ human CXCR2 chemokine receptor calcium-optimized cell line.
The Fluo-4 NW calcium assay kit (Life Technologies) was used according to manufacturer's protocol for in-cell measurement of calcium mobilization, which was read using a FLIPR Tetra high-throughput cellular screening system (Molecular Devices). The peak response minus the basal response from each well was used to determine inhibition dose response curves fitting a four-parameter logistic equation and IC50 values.
In general terms: Calcium flux is commonly read through the fluorescence of an indicator in the cells.

The subject of experiment [2] is neutrophil surface expression of CD11b. To be noted: cited from earlier work.
In experiment [3] the target is T3, Human CXCR2. Briefly: Tango CXCR2-bla U2OS cell-based β-arrestin recruitment assay. To be noted: for EC50: human agonist potency. Details: The beta-arrestin/TEV protease fusion and the beta-lactamase reporter are separate parts of the cell line. The source says: Cells were thawed, propagated, cultured and frozen according to the manufacturer's directions.
Preparation of Tango™ CXCR2-bla U2OS cells for use in cell-based assays: The manufacturer's protocol was altered to make use of 96-well plates instead of 384-well plates. Briefly, dividing cells were harvested one day prior to use. Cells were harvested and resuspended in assay medium (100% FreeStyle™ Expression Medium; Life Technologies; Cat #12338-018) at a viable cell density of 312,500 cells/mL. 128 μL of cell suspension was added per well in 96-well black-walled, clear bottom tissue culture-treated plates. Cells were incubated for 16-20 hrs at 37° C. in an atmosphere of 5% CO2 prior to use in assays.
Tango™ assay procedure: Assays were set up and run as described in the manufacturer's protocol. For antagonist assays, agonists were used at concentrations in the EC50-EC80 range. Assays were read using a FlexStation® 3 (Molecular Devices) fluorescence plate reader configured with the parameters given in Table 4. The blue/green emission ratio for each well was calculated by dividing the blue emission values by the green emission values. All inhibition curves were fitted using a four-parameter dose-response using GraphPad Prism™ (Version 7.01).
The Human CXCR2 Tango™ cell line was used to assess the ability of antibody BKO-4A8-101c to inhibit β-arrestin recruitment to agonist-activated CXCR2. All human ELR+ chemokine CXCR2 ligands were tested in antagonist dose response assays using calculated EC50 values of agonist.
The commercially available reporter cell line Tango™ CXCR2-bla U2OS (ThermoFisher Scientific) was used to assess the ability of the anti-CXCR2 antibodies to inhibit β-arrestin recruitment to agonist-activated CXCR2. Agonists were provided at their assay EC50 concentration for antagonist assays.
In general terms: Arrestin recruitment assays detect the binding of arrestin to an activated receptor.

The subject of experiment [4] is mouse model of severe asthma. The following applies: pre-treatment with 10 and 30 mg/kg; not significantly different from HDM-vehicle; cited from earlier work.

As to `C[C@@H](Oc1cc(NS(=O)(=O)N2CCC2)nc(SCc2cccc(F)c2F)n1)[C@@H](O)CO` [AZD5069], the “effect on C5a, LTB4 or fMLP induced CD11b expression” value in the experiment on CD11b expression is on record as “no effect”. Further, the “fold less potent at CCR2b receptors” value at CCR2b receptors is given as over 150 fold. The “fold less potent at CXCR1” value on CXCR1 is on record as over 150 fold.

For orientation: IC90 means the concentration needed for an effect of 90%. In general, IC50 refers to the midpoint of a concentration-inhibition curve. `Cc1c(F)cccc1NC(=O)Nc1ccc(Cl)c(S(=O)(=O)[C@H]2CCCNC2)c1O` [Antagonist 5, Danirixin]: the “primary end points in a Phase IIb trial for COPD” value in the experiment on COPD was “failed to meet primary end points”. Also, the “CXCL1 Maximal Inhibition %” value turned out to be 95% at Human CXCR2 [1] (CXCL1 at EC50) and 99% on Human CXCR2 [3] (CXCL1 at EC50, comparison with comparators). Further, the “CXCL8 Maximal Inhibition %” value on Human CXCR2 [1] (CXCL8 at EC50) is 97%; at Human CXCR2 [3] (CXCL8 at EC50, comparison with comparators) it was 99%. Besides, the “CD11b upregulation on neutrophils” value in experiment [2] was “block CD11b upregulation”. Moreover, in experiment [2], the “IC50, CXCL1-induced ex vivo neutrophil surface expression of CD11b” value was 0.069 µg/mL. The “IC90, CXCL1-induced ex vivo neutrophil surface expression of CD11b” value in experiment [2] (range 158-1080 ng/ml) is 0.62 µg/mL. The IC90 in experiment [2] (range 356-2443 nM, read-out: IC90, CXCL1-induced ex vivo neutrophil surface expression of CD11b) is 1400 nM. In addition, the IC50 in experiment [2] (read-out: IC50, CXCL1-induced ex vivo neutrophil surface expression of CD11b) is 156 nM. In addition, at Human CXCR2 [3] (CXCL5 at EC50, comparison with comparators), the “CXCL5 Maximal Inhibition %” value came to 99%.

For `CC[C@@H](Nc1c(Nc2cccc(C(=O)N(C)C)c2O)c(=O)c1=O)c1ccc(C)o1` [Antagonist 6, SCH 527123], the “inhibition of neutrophil cell numbers in the BAL (maximum)” value in experiment [4] is listed as at most 30%.

Broadly, the EC50 is the concentration giving half of the maximal effect. As to “CXCL1: human agonist chemokine, Miltenyi Biotec 130-108-974 [reference compound]”, the values for the EC50 with Human CXCR2 [1] and with Human CXCR2 [3] were 2.62 nM and 2.3 nM, respectively.

Turning to “CXCL2: human agonist chemokine, R&D Systems 276-GB [reference compound]”, the EC50 came out at 37 nM with Human CXCR2 [1] and 33.3 nM in the experiment with Human CXCR2 [3].

For “CXCL3: human agonist chemokine, R&D Systems 277-GG [reference compound]”, the EC50 with Human CXCR2 [1] stood at 12.2 nM; in the experiment with Human CXCR2 [3] it was 11.9 nM.

Consider “CXCL5: human agonist chemokine, R&D Systems 254-XB [reference compound]”, for which the EC50 amounted to 39.2 nM in the experiment with Human CXCR2 [1] and 97.7 nM with Human CXCR2 [3].

“CXCL6: human agonist chemokine, R&D Systems 333-GC [reference compound]”: the EC50 with Human CXCR2 [1] turned out to be 28.9 nM; with Human CXCR2 [3], 9.4 nM.

“CXCL8: human agonist chemokine, Miltenyi Biotec 130-108-979 [reference compound]”: in the experiment with Human CXCR2 [1], the concentration for a half-maximal effect (EC50) was determined as 3.2 nM.
